Columns and labels:
HepG2 [1] = experiment: Antitumor activity against Homo sapiens (human) HepG2 cells assessed as cell growth inhibition after 48 hr by MTT assay; format: functional, cell-based
A549 = experiment: Antitumor activity against Homo sapiens (human) A549 cells assessed as cell growth inhibition after 48 hr by MTT assay; format: functional, cell-based
MCF7 [2] = experiment: Antitumor activity against Homo sapiens (human) MCF7 cells assessed as cell growth inhibition after 48 hr by MTT assay; format: functional, cell-based
HCT-116 = experiment: Antitumor activity against Homo sapiens (human) HCT116 cells assessed as cell growth inhibition after 48 hr by MTT assay; format: functional, cell-based
HepG2 [3] = experiment: Ratio of doxorubicin IC50 to compound IC50 for Homo sapiens (human) HepG2 cells; format: functional
MCF7 [4] = experiment: Ratio of doxorubicin IC50 to compound IC50 for Homo sapiens (human) MCF7 cells; format: functional
[5] = Homo sapiens, HepG2, 48 h, read-out: IC50
[6] = Homo sapiens, A549, 48 h, read-out: IC50
[7] = Homo sapiens, MCF7, 48 h, read-out: IC50
[8] = Homo sapiens, HCT-116, 48 h, read-out: IC50

Structure (SMILES) | IC50 (HepG2 [1]; hepg2) | IC50 (A549; a549) | IC50 (MCF7 [2]; mcf7) | IC50 (HCT-116; hct-116) | Ratio IC50 (HepG2 [3]) | growth inhibition (GI) (HepG2 [1]) | IC50 (HepG2 [1]; [5]) | growth inhibition (GI) (A549) | IC50 (A549; [6]) | growth inhibition (GI) (MCF7 [2]) | IC50 (MCF7 [2]; [7]) | growth inhibition (GI) (HCT-116) | IC50 (HCT-116; [8]) | Ratio IC50 (MCF7 [4])
C[C@@H](CC[C@@]1(O)O[C@H]2C[C@H]3[C@@H]4CC[C@@H]5C[C@@H](O[C@@H]6O[C@H](CO)[C@@H](O)[C@H](O)[C@H]6O[C@@H]6O[C@H](CO)[C@H](O)[C@H](O)[C@H]6O)CC[C@]5(C)[C@H]4CC[C@]3(C)[C@H]2[C@@H]1C)CO[C@@H]1O[C@H](CO)[C@@H](O)[C@H](O)[C@H]1O | Not Active | Not Active | Not Active | Not Active |  |  |  |  |  |  |  |  |  | 
C[C@@H]1CC[C@@]2(OC1)O[C@H]1C[C@H]3[C@@H]4CC[C@@H]5C[C@@H](O[C@@H]6O[C@H](CO)[C@@H](O)[C@H](O)[C@H]6O[C@@H]6O[C@H](CO)[C@H](O)[C@H](O)[C@H]6O)CC[C@]5(C)[C@H]4CC[C@]3(C)[C@H]1[C@@H]2C |  |  |  |  | 2 | Dose-dependent effect | 3.5 µM | Dose-dependent effect | 16.5 µM | Dose-dependent effect | 4 µM | Dose-dependent effect | 4.4 µM | 
COc1cccc2c1C(=O)c1c(O)c3c(c(O)c1C2=O)C[C@@](O)(C(=O)CO)C[C@@H]3O[C@H]1C[C@H](N)[C@H](O)[C@H](C)O1 [DOXORUBICIN] |  |  |  |  |  |  | 7.36 µM |  | 0.84 µM |  |  |  | 6.86 µM | 
CO[C@]1(CC[C@H](C)CO[C@@H]2O[C@H](CO)[C@@H](O)[C@H](O)[C@H]2O)O[C@H]2C[C@H]3[C@@H]4CC[C@@H]5C[C@@H](O[C@@H]6O[C@H](CO)[C@@H](O)[C@H](O)[C@H]6O[C@@H]6O[C@H](CO)[C@H](O)[C@H](O)[C@H]6O)CC[C@]5(C)[C@H]4CC[C@]3(C)[C@H]2[C@@H]1C | Not Active | Not Active | Not Active | Not Active |  |  |  |  |  |  |  |  |  | 
C[C@@H]1CC[C@@]2(OC1)O[C@H]1C[C@H]3[C@@H]4CC[C@@H]5C[C@@H](O[C@@H]6O[C@H](CO)[C@H](O[C@@H]7O[C@H](CO)[C@@H](O)[C@H](O[C@@H]8O[C@H](CO)[C@@H](O)[C@H](O)[C@H]8O)[C@H]7O[C@@H]7O[C@H](CO)[C@H](O)[C@H](O)[C@H]7O[C@@H]7OC[C@@H](O)[C@H](O)[C@H]7O)[C@H](O)[C@H]6O)CC[C@]5(C)[C@H]4CC[C@]3(C)[C@H]1[C@@H]2C [Desmettianoside C] |  |  |  |  |  | Dose-dependent effect | 1.1 µM | Dose-dependent effect | 10.2 µM | Dose-dependent effect | 2.6 µM | Dose-dependent effect | 2.4 µM | 2

— ChEMBL document CHEMBL3046560, “Steroidal saponins from the leaves of Yucca de-smetiana and their in vitro antitumor activity: structure activity relationships through a molecular modeling approach” (Med Chem Res, 2013)
